The record followed here is ChEMBL document CHEMBL2073846, “Pharmacokinetic study of the hepatobiliary transport of indomethacin” (Pharm Res, 2000).

SMILES strings stand for the structures.

The target in series [1] is T1, ATP-binding cassette sub-family C member 2 (Rattus norvegicus, UniProt Q63120). Kind of series: TP_TRANSPORTER: biliary excretion in SD rat. It is filed as functional, organism-based, Sprague-Dawley, Bile. The settings on record: in vivo.
For series [2], the target named is T1, ATP-binding cassette sub-family C member 2. Description: TP_TRANSPORTER: biliary excretion in EHBR rat. It is filed as functional, organism-based, Bile. The following applies: in vivo.
In series [3] the target is T2, Hepatic sodium/bile acid cotransporter (Rattus norvegicus, UniProt P26435).
T2 sequence (P26435 whole entry): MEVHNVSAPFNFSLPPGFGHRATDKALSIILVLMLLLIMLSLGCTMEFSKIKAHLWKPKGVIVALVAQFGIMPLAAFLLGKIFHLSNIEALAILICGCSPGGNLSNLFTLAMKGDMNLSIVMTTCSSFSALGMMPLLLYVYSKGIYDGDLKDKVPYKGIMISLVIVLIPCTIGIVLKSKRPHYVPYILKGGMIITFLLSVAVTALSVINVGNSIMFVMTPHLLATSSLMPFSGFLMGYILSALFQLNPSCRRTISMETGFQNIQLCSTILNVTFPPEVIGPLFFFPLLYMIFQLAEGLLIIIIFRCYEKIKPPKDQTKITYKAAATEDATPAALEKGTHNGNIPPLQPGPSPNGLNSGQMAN
Kind of series: TP_TRANSPORTER: uptake in Ntcp-expressing COS-7 cells. Type of series: functional, cell-based. The following applies: monkey.

Series [4] has as its target T3, Solute carrier organic anion transporter family member 1A1 (Rattus norvegicus, UniProt P46720).
T3 sequence (P46720 whole entry): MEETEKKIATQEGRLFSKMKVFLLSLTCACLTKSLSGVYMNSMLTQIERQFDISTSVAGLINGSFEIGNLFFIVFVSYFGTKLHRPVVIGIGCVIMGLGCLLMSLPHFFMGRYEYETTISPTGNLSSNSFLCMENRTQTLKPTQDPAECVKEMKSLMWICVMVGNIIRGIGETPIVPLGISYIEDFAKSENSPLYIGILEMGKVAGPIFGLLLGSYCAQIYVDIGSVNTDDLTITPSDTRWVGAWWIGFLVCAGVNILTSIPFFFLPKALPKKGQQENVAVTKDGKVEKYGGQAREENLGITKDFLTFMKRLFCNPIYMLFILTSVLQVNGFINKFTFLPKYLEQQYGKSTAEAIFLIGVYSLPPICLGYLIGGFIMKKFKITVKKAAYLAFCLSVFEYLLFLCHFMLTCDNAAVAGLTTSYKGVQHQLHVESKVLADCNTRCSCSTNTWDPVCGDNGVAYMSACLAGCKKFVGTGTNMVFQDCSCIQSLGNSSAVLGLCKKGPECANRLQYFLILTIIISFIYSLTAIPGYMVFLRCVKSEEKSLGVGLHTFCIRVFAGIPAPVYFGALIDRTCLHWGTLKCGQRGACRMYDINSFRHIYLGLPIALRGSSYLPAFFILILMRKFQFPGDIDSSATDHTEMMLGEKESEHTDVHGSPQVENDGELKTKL
Description: TP_TRANSPORTER: uptake in Oatp1-expressing COS-7 cells. It is filed as functional, cell-based. The settings on record: monkey.

T1 sequence (Q63120 whole entry): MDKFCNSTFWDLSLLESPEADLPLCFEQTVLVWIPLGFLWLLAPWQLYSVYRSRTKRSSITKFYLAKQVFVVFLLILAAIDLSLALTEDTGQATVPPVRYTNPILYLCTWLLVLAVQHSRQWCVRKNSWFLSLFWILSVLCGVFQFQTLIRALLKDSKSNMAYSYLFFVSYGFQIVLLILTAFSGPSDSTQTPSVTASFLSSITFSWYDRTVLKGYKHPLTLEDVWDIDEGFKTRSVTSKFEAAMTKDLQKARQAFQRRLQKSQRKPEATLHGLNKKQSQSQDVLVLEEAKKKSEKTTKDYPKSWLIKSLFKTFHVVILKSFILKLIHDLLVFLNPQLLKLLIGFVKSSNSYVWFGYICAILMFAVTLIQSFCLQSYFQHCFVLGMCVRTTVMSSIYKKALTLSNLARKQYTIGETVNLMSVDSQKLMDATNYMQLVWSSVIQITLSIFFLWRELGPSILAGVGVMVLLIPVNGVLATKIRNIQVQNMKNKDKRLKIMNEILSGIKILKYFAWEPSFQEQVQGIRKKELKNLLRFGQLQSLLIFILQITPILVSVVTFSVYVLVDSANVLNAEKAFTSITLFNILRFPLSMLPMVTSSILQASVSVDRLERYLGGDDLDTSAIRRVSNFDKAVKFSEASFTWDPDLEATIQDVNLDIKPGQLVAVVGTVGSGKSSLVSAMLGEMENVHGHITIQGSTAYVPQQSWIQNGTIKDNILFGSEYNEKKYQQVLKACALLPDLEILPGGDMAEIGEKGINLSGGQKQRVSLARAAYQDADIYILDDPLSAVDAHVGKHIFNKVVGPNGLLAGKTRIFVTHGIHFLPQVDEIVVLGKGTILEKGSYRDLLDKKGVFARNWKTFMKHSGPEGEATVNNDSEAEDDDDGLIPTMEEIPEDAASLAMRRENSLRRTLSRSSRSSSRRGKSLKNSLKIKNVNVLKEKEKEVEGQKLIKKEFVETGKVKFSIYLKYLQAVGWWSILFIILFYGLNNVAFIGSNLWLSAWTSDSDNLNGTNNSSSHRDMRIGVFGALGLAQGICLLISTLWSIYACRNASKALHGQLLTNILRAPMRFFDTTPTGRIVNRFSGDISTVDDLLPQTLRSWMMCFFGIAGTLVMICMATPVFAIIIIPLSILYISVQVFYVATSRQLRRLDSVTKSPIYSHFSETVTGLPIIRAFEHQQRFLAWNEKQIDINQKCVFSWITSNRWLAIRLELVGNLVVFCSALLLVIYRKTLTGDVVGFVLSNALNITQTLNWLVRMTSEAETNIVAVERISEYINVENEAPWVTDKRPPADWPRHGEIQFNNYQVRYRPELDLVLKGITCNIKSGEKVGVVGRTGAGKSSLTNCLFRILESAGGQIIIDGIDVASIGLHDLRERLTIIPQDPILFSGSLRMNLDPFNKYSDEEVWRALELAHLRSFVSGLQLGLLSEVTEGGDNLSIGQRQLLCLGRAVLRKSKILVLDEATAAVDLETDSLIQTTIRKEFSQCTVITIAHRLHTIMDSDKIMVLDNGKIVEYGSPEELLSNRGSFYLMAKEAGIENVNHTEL

With `COc1ccc2c(c1)c(CC(=O)O[C@@H]1O[C@H](C(=O)O)[C@@H](O)[C@H](O)[C@H]1O)c(C)n2C(=O)c1ccc(Cl)cc1` [INDOMETHACIN GLUCURONIDE], the Activity entry in series [1] and in series [2] was “substrate [+]” each time.

`COc1ccc2c(c1)c(CC(=O)O)c(C)n2C(=O)c1ccc(Cl)cc1` [INDOMETHACIN]: the Activity result in series [1], in series [3], in series [2] and in series [4] was “is not a substrate [-]” throughout.
